# Laboratory results reported in ChEMBL document CHEMBL5055669, “Development of Potent and Selective Agonists for Complement C5a Receptor 1 with In Vivo Activity” (J Med Chem, 2021).
# Active and inactive are the calls of the source. No cut-off for these calls is given here. Square brackets hold non-standard residues; d marks the D form. Peptide text beside a SMILES is read from it. Abu = CC[C@H](N)C(=O)O
# What was measured:
# [1] = target: T1, C3a anaphylatoxin chemotactic receptor (Homo sapiens, UniProt Q16581); test: Agonist activity at human C3aR expressed in CHO cells assessed as induction of ERK1/2 phosphorylation at Thr202/Tyr204 residues incubated for 10 mins by AlphaLISA assay; type: functional, cell-based
# T1 sequence (Q16581 whole entry): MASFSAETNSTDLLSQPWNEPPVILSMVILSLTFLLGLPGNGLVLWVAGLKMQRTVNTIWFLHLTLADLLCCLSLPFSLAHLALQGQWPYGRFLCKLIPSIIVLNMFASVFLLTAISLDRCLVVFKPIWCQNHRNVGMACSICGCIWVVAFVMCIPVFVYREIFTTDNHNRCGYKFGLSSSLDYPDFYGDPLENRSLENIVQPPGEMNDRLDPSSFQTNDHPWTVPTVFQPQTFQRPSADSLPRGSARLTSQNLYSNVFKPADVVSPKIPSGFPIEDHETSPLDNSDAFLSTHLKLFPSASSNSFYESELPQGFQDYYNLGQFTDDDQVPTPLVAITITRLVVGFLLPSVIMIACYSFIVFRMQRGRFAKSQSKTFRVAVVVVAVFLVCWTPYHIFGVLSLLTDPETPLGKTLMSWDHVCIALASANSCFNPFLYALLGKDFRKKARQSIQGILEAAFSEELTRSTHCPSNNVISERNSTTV
# [2] = target: T2, C5a anaphylatoxin chemotactic receptor 1 (Homo sapiens, UniProt P21730); test: Agonist activity at human C5aR1 expressed in CHO cells assessed as induction of ERK1/2 phosphorylation at Thr202/Tyr204 residues incubated for 10 mins by AlphaLISA assay; type: functional, cell-based
# T2 sequence (P21730 whole entry): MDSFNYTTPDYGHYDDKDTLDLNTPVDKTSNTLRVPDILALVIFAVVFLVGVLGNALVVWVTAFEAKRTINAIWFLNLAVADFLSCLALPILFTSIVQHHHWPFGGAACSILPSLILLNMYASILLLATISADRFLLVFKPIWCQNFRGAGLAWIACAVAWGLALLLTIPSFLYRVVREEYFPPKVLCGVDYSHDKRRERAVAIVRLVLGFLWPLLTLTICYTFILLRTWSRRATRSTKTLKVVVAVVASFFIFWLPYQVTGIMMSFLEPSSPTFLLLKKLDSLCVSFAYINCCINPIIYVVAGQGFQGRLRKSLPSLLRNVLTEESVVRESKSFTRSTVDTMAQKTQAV
# [3] = species: Homo sapiens; test: Selectivity ratio of EC50 for agonist activity at human C3aR expressed in CHO cells to EC50 for agonist activity at human C5aR1 expressed in CHO cells; type: cell-based
# [4] = target: T3, C5a anaphylatoxin chemotactic receptor 1 (Mus musculus, UniProt P30993); test: Agonist activity at C5aR1 in mouse RAW264.7 cells assessed as induction of ERK1/2 phosphorylation at Thr202/Tyr204 residues incubated for 10 mins by AlphaLISA assay; type: functional, cell-based
# T3 sequence (P30993 whole entry): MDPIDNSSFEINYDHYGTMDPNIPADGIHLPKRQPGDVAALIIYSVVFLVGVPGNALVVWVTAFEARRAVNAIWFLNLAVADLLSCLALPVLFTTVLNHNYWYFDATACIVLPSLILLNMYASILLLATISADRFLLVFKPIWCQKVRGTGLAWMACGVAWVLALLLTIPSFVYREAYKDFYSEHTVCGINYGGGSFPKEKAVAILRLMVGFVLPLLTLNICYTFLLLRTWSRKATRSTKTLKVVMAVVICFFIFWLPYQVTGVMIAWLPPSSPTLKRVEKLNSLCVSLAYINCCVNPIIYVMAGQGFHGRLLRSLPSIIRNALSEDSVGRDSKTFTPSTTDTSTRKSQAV
# [5] = target: T4, C5a anaphylatoxin chemotactic receptor 1 (Mus musculus) (UniProt P30993); test: Agonist activity at C5aR1 in mouse RAW264.7 cells assessed as induction of ERK1/2 phosphorylation at Thr202/Tyr204 residues at up to 100 uM incubated for 10 mins in presence of JPE1375 by AlphaLISA assay; type: functional, cell-based
# T4 sequence (whole entry): T3 sequence (P30993 whole entry)
# [6] = tested on: MDM; test: Antiinflammatory activity in human MDM cells assessed as suppression of LPS-induced IL-6 production at 1 uM measured after 24 hrs by ELISA; type: functional, cell-based
# [7] = tested on: MDM; test: Antiinflammatory activity in human MDM cells assessed as suppression of LPS-induced TNFalpha production at 1 uM measured after 24 hrs by ELISA; type: functional, cell-based
# [8] = Ratio of EC50 for agonist activity at C5aR1 in mouse RAW264.7 cells to EC50 for agonist activity at human C5aR1 expressed in CHO cells; type: cell-based
# [9] = tested on: Mus musculus; test: Antiinflammatory activity in C57BL/6J mouse assessed as polymorphonuclear leucocyte mobilization at 50 ug/kg, iv measured after 30 mins by hemacolor-staining based microscopic analysis relative to control; type: functional; details: dose 50 µg/kg, 0.5 h
# [10] = target: T4, C5a anaphylatoxin chemotactic receptor 1 (Mus musculus); test: Agonist activity at C5aR1 in mouse RAW264.7 cells assessed as induction of ERK1/2 phosphorylation at Thr202/Tyr204 residues at up to 100 uM incubated for 10 mins by AlphaLISA assay; type: functional, cell-based
SMILES,EC50 ([1]; read-out: pEC50 (converted)) [µM],EC50 [2] [µM],Ratio EC50 [3],further results
CC(C)C[C@H](NC(=O)[C@H](C)NC(=O)[C@H](CC(C)C)NC(=O)[C@@H]1CCCN1C(=O)[C@H](CCCCN)NC(=O)[C@H](C)N)C(=O)N[C@H](C)C(=O)N[C@@H](CCCNC(=N)N)C(=O)O,0.532,1.43,0.4,–
CC(=O)N[C@@H](Cc1ccccc1)C(=O)N[C@@H](CCCCN)C(=O)N1CCC[C@H]1C(=O)N[C@@H](CC(C)C)C(=O)N[C@@H](C)C(=O)N[C@@H](Cc1ccccc1)C(=O)N[C@H](C)C(=O)N[C@@H](CCCNC(=N)N)C(=O)O (Ac-FKPLAF[dA]R-OH),3.76,0.0733,51.5,–
CC(C)C[C@H](NC(=O)[C@H](C)NC(=O)[C@@H](NC(=O)[C@@H]1CCCN1C(=O)[C@H](CCCCN)NC(=O)[C@@H](N)Cc1ccccc1)[C@@H](C)O)C(=O)N[C@H](C)C(=O)N[C@@H](CCCNC(=N)N)C(=O)O,0.0371,0.0104,3.7,–
CC(=O)N[C@@H](Cc1ccccc1)C(=O)N[C@@H](CCCCN)C(=O)N1CCC[C@H]1C(=O)N[C@@H](CC(C)C)C(=O)N[C@@H](C)C(=O)N[C@H](C(=O)N[C@H](C)C(=O)N[C@@H](CCCNC(=N)N)C(=O)O)[C@@H](C)O,69.8,0.0341,2050,–
CC(C)C[C@H](NC(=O)[C@@H]1CCCN1C(=O)[C@H](CCCCN)NC(=O)[C@@H](N)Cc1ccccc1)C(=O)N1CCC[C@H]1C(=O)N[C@@H](C)C(=O)N[C@H](C)C(=O)N[C@@H](CCCNC(=N)N)C(=O)O,54.8,–,–,–
CC(C)C[C@H](NC(=O)[C@H](C)NC(=O)[C@@H](NC(=O)[C@@H]1CCCN1C(=O)[C@H](CCCNC(=N)N)NC(=O)[C@@H](N)Cc1ccccc1)[C@@H](C)O)C(=O)N[C@H](C)C(=O)N[C@@H](CCCNC(=N)N)C(=O)O,0.00904,0.0244,0.4,–
CC(C)C[C@H](NC(=O)[C@@H]1CCCN1C(=O)[C@H](CC(C)C)NC(=O)[C@@H]1CCCN1C(=O)[C@H](CCCCN)NC(=O)[C@H](C)N)C(=O)N[C@H](C)C(=O)N[C@@H](CCCNC(=N)N)C(=O)O,0.631,19.1,0.033,–
CC(C)C[C@H](NC(=O)[C@@H]1CCCN1C(=O)[C@H](CCCCN)NC(=O)[C@@H](N)Cc1ccccc1)C(=O)N[C@@H](C)C(=O)N[C@@H](C)C(=O)N[C@H](C)C(=O)N[C@@H](CCCNC(=N)N)C(N)=O,–,–,–,EC50 ([1]; read-out: EC50): > 100 µM
CC[C@H](NC(=O)[C@H](C)NC(=O)[C@H](CC(C)C)NC(=O)[C@@H]1CCCN1C(=O)[C@H](CCCCN)NC(=O)[C@H](Cc1ccccc1)NC(C)=O)C(=O)N[C@H](C)C(=O)N[C@@H](CCCNC(=N)N)C(=O)O (Ac-FKPLA[Abu][dA]R-OH),14.5,0.00578,2420,EC50 [4]: 2.3 µM; Activity [5]: inactive; Activity [6]: Active; Activity [7]: Active; Ratio EC50 [8]: 1000; Activity [9]: 41%
CC(C)C[C@H](NC(=O)[C@@H]1CCCN1C(=O)[C@H](CC(C)C)NC(=O)[C@H](C)NC(=O)[C@H](CCCCN)NC(=O)[C@@H](N)Cc1ccccc1)C(=O)N[C@H](C)C(=O)N[C@@H](CCCNC(=N)N)C(=O)O,0.0619,0.0195,3.26,–
CC(C)C[C@H](NC(=O)[C@@H]1CCCN1C(=O)[C@H](CCCCN)NC(=O)[C@@H](N)Cc1ccccc1)C(=O)N[C@@H](C)C(=O)N[C@@H](C)C(=O)N[C@H](C)C(=O)N[C@@H](CCCNC(=N)N)C(=O)O,131,–,–,Activity [10]: inactive
